Assay [1] deals with T1, K-Ras G12D (Homo sapiens, UniProt P01116, G12D).
T1 construct: made in house; host or cells: E. coli, e.g. BL21 (DE3)
The assay can be described thus: PPI-HTRF assay, K-Ras G12D / SOS1 interaction. The format is biochemical. Conditions: HTRF, K-Ras G12D; read-out: PPI-HTRF-5 nM (K-Ras G12D IC50). The essentials: (§1)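 Compound in DMSO is dispensed first, then GST-K-Ras plus anti-GST-Eu(K), then His-hSOS1 plus anti-6His-XL665. Plates incubate about 10 min or longer before HTRF measurement at 620 and 665 nm. IC50 values are derived from the emission ratio for each K-Ras variant.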
(In TR-FRET formats the signal depends on donor and acceptor labels being close together.)

Assay [2] addresses T2, K-Ras G12S (Homo sapiens, UniProt P01116, G12S).
T2 construct: made in house; host or cells: E. coli, e.g. BL21 (DE3)
The assay can be described thus: PPI-HTRF assay, K-Ras G12S / SOS1 interaction. The format is biochemical. To be noted: read-out: PPI-HTRF-5 nM (K-Ras G12S IC50). The essentials: as §1

Assay [3] concerns the target T3, K-Ras G12V (Homo sapiens, UniProt P01116, G12V).
T3 construct: made in house; host or cells: E. coli, e.g. BL21 (DE3)
The assay can be described thus: PPI-HTRF assay, K-Ras G12V / SOS1 interaction. The assay is classed as biochemical. Conditions: HTRF, K-Ras G12V; read-out: PPI-HTRF-5 nM (K-Ras G12V IC50). The method in brief:
as §1

Assay [4] has as its target T4, wildtype K-Ras (Homo sapiens, UniProt P01116).
T4 construct: made in house; host or cells: E. coli, e.g. BL21 (DE3)
The assay can be described thus: PPI-HTRF assay, wildtype K-Ras / SOS1 interaction. The assay is classed as biochemical. To be noted: HTRF, K-Ras wt; read-out: PPI-HTRF-5 nM (K-Ras wt IC50). The method in brief:
as §1

Assay [5] concerns GP2D cells. The assay can be described thus: Ras cellular assay, cell proliferation GP2D. The format is cell-based. The method in brief: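 Growth inhibition read by CellTiter-Glo luminescence roughly 5 days after compound addition, which followed overnight plating of G12D-mutant GP2D cells (e.g., 800 per well). Compounds were tested as a serial dilution (e.g., 9 points, 3-fold), with IC50 fitted by four-parameter model.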

Assay [6] concerns A549 cells. The assay can be described thus: Ras cellular assay, cell proliferation A549. The format is cell-based. To be noted: Homo sapiens. The essentials:
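G12S-mutant A549 cells (800/well) in RPMI-1640 plus 10% heat-inactivated FBS, standard or ultra-low attachment 384-well plates, dosed the day after plating with a 10-point 3-fold series. Viability by CellTiter-Glo luminescence about 6 days later; IC50 from four-parameter fit.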

In assay [7] the test system is SW620 cells. The assay can be described thus: Ras cellular assay, cell proliferation SW620. The format is cell-based. Conditions: Homo sapiens, SW-620. From the text:
For example, this assay can be also used to assess selective growth inhibition of a mutant Ras protein relative to a wildtype, or relative to a different mutant Ras protein.

In patent US12059425B2, “Heterocyclic compounds and uses thereof” (Kumquat Biosciences Inc., priority 2022, dated 2024) one finds IC50 data, which are given here for one compound.

T1 sequence (P01116 1-188 isoform P01116-2 G12D): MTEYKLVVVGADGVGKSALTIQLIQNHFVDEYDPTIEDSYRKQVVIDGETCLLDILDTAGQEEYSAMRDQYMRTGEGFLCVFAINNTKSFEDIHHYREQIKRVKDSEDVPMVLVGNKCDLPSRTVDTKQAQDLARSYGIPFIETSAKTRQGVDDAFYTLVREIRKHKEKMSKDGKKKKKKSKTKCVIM
T3 sequence (P01116 1-188 isoform P01116-2 G12V): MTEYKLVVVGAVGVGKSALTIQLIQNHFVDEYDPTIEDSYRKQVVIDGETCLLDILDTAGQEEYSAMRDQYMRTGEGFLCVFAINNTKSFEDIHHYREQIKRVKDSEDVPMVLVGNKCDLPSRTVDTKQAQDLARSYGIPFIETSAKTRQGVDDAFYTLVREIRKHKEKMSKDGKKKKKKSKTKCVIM
T4 sequence (P01116 1-188 isoform P01116-2): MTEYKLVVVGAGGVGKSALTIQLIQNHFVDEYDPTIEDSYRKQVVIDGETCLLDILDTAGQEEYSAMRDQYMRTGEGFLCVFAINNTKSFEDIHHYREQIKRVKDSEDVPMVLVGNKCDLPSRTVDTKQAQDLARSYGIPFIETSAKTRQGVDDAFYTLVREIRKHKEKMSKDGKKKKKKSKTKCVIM
T2 sequence (P01116 1-188 isoform P01116-2 G12S): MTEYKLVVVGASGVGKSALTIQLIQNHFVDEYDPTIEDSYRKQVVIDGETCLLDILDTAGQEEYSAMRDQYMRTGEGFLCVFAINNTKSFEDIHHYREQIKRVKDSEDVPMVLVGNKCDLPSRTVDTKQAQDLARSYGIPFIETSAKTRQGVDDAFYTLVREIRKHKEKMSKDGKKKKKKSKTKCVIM

What is called IC50 is the concentration that inhibits the measured activity by half. For `CC(=O)N1CC2Oc3c(Cl)c(-c4ccc(F)c5sc(N)c(C#N)c45)c(F)c4nc(OC[C@@]56CCCN5C[C@H](F)C6)nc(c34)N(C)C2C1` (stereo partly drawn) [compound 172, 4-(9-acetyl-6-chloro-4-fluoro-2-(((2R,7aS)-2-fluorotetrahydro-1H-pyrrolizin-7a(5H)-yl)methoxy)-11-methyl-7a,8,9,10,10a,11-hexahydropyrrolo[3′,4′:2,3][1,4]oxazepino [5,6,7-de]quinazolin-5-yl)-2-amino-7-fluorobenzo[b]thiophene-3-carbonitrile], the IC50 in assay [1] was below 5 µM; in assay [2], below 5 µM; in assay [3], below 5 µM; in assay [4], below 5 µM; in assay [5], above 5 µM; in assay [6] it was above 5 µM. In assay [7], this compound yielded an IC50 above 5 µM.
